Values joined by “and” are separate entries in the source; they are usually repeats but may differ in a detail not shown here. Identical values can stand only once. Like-named read-outs stand apart in the source and are kept apart here.
Experiments:
Format in all cases: cell-based
[1] = tested on: Breast MCF-7 (MMR proficient); test: MTT assay for 7-day toxicity assay; settings: Homo sapiens, MCF7, 168 h; Breast MCF-7 (MMR proficient); 7-day MTT; single determinations; read-out: GI50
Protocol: (§1) The cell culture techniques were carried out in a Class II microbiological safety cabinet which was swabbed with 70% IMS in distilled water before each use. Glioma cells were routinely cultured in Costar tissue culture flasks in RPMI 1640 liquid medium (containing 0.3 g/L L-glutamine and 2 g/L sodium bicarbonate) supplemented with 10% heat inactivated FBS (55-59° C.) for 1 hour to denature complement proteins which would otherwise evoke a cellular immune response resulting in cell lysis, 1% non-essential amino acids, 50 μg/mL gentamicin and 400 μg/mL G418 (vector selected reagent). Colorectal and melanoma cells were maintained in RPMI 1640 supplemented with 10% FBS. MRC-5 cells were cultured in EMEM. Cells were grown in a humidified incubator containing 5% CO2 at 37° C. Cells were sub-cultured when growth exceeded approximately 80% confluence, normally twice weekly. The medium was aspirated from the flask and approximately 0.8 mL trypsin-EDTA 1× solution added. The cells were re-incubated at 37° C. until they visibly detached from the flask. The cell suspension was then re-suspended in 5 mL medium and 0.5-1 mL of the cell suspension was transferred to a new flask (25 cm^2) with 7 mL culture medium. The cells were further incubated at 37° C. incubator. Cells were disposed after passage nearly 30 times in order to minimize phenotypic drift. New batches of cells were taken from liquid nitrogen storage by thawing rapidly (37° C. water bath) and re-suspension in a 25 cm^2 flask with 10 mL of culture medium. Two passages were allowed to resume normal growth. For long-term maintenance, viable cells at 60-80% confluence were detached by minimum amount of trypsin/EDTA and re-suspended in sterile filtered freezing medium (95% FBS, 5% DMSO), transferred to sterile cryogenic vials, and frozen overnight at −20° C. followed by −80° C. for 1-2 days and stored in liquid nitrogen for long term storage.
(§2) Most test compounds, including temozolomide, were prepared as stock solution (100 mM) in DMSO and stored at −20° C. for not more than 6 months.
(§3) This assay was first described in Mosmann, T., 1983, “Rapid colorimetric assay for cellular growth and survival: Application to proliferation and cytotoxicity assays”, Journal of Immunological Methods, Vol. 65, Nos. 1-2, pp. 55-63.
(§4) Glioma cell lines, SNB19 and U373, both MGMT transfected (i.e., SNB19M and U373M) and vector controls (i.e., SNB19V and U373V); colorectal carcinoma cell lines, HCT116, HT29, and DLD1; melanoma cell line, SKMEL-28; breast cell line, MCF-7; and normal human fetal lung fibroblast cell line, MRC-5; were harvested at 60-80% confluence—during the logarithmic phase of growth.
(§5) Following harvesting, cells in suspension were gently syringed through a 23 gauge needle to obtain a near-single cell suspension. The desired cell seeding densities were used and added into 96-well plates in 180 μL culture medium if only one test compound was to be added, or 160 μL if two test compounds were to be added in combination, which were allowed to attach at 37° C. (5% CO2) overnight. For the 7 day assay, the cell seeding density for different cell lines was as follows: SNB19V, SNB19M: 650 cells/well; U373V, U373M: 650 cells/well; SNB19VR, U373VR: 650 cells/well; HCT116, DLD-1, SKMEL-28, MRC-5, MCF-7: 400 cells/well.
(§6) The two peripheral lanes were used as blank wells (cell free) and filled with 200 μL of medium in order to minimise medium evaporation from the plate. A separate time zero (T0) plate was set up alongside other plates. Serial dilutions in tissue culture medium of a 100 mM stock of test compound in DMSO were prepared immediately before each assay to ten times the final concentrations required, and then 20 μL was added to each well (200 μL total media per well) to achieve final concentrations of 0.5 μM, 1 μM, 5 μM, 10 μM, 50 μM, 100 μM, 500 μM, and 1000 μM. A minimum of four wells received the same test compound concentration. […]

[2] = tested on: Colon HCT116 (MMR mutated); test: MTT assay for 7-day toxicity assay; settings: Colon HCT116 (MMR mutated), 7-day MTT, single determinations, read-out: GI50
Protocol: as §1, §2, §3, §4, §5, §6

[3] = tested on: Colon HT29 (MMR proficient); test: MTT assay for 7-day toxicity assay; settings: Homo sapiens, HT-29, 168 h, Colon HT29 (MMR proficient); 7-day MTT; single determinations; read-out: GI50
Protocol: as §1, §2, §3, §4, §5, §6

[4] = tested on: Melanoma SKMEL-28 (MMR proficient); test: MTT assay for 7-day toxicity assay; settings: Homo sapiens, SK-MEL-28, 168 h, Melanoma SKMEL-28 (MMR proficient); 7-day MTT; single determinations; read-out: GI50
Protocol: as §1, §2, §3, §4, §5, §6

Glioma SNB19M (MGMT+) = test: MTT assay for 7-day toxicity assay; settings: Glioma SNB19M (MGMT+), read-out: GI50
Summary of the method: (§7)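 MGMT-transfected or vector-control glioma cells were seeded at 650 cells/well, attached overnight, and exposed for 7 days at 37 °C to compound at final 0.5–1000 μM. Viability was read by MTT (0.4 mg/mL, 4 h) formazan absorbance, with a day-0 plate included.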

Glioma SNB19V (MGMT−) = test: MTT assay for 7-day toxicity assay; settings: Glioma SNB19V (MGMT−), read-out: GI50
Summary of the method: as §7

Glioma U373M (MGMT+) = test: MTT assay for 7-day toxicity assay; settings: Glioma U373M (MGMT+), read-out: GI50
Summary of the method: as §7

Glioma U373V (MGMT low) = test: MTT assay for 7-day toxicity assay; settings: for GI50: Glioma U373V (MGMT low), read-out: GI50
Summary of the method: as §7

[5] = tested on: Glioma SNB19VR (MGMT−) (TMZ resistant); test: MTT assay for 7-day toxicity assay; settings: 168 h, Glioma SNB19VR (MGMT−, TMZ resistant); 7-day MTT; single determinations; read-out: GI50
Protocol: as §1, §2, §3, §4, §5, §6

[6] = tested on: Glioma U373VR (MGMT low) (TMZ resistant); test: MTT assay for 7-day toxicity assay; settings: 168 h, Glioma U373VR (MGMT low, TMZ resistant); 7-day MTT; single determinations; read-out: GI50
Protocol: as §1, §2, §3, §4, §5, §6

[7] = tested on: Normal Human Fetal Lung Fibroblast MRC-5; test: MTT assay for 7-day toxicity assay; settings: Homo sapiens, MRC5, 168 h, Normal Human Fetal Lung Fibroblast MRC-5; 7-day MTT; single determinations; read-out: GI50
Protocol: as §1, §2, §3, §4, §5, §6

[8] = tested on: MGMT+ lines SNB 19M and U373M; test: MTT assay, MGMT+ glioma lines
Excerpt: as §3, §4, §5
The two peripheral lanes were used as blank wells (cell free) and filled with 200 μL of medium in order to minimise medium evaporation from the plate. A separate time zero (T0) plate was set up alongside other plates. […]
After incubation at 37° C., 5% CO2 for 7 days (or immediately for the day 0 plate), cell viability was quantified using the MTT assay. […]
The intensity of absorbance is directly proportional to cell viability. A linear relationship exists between cell number and the amount of formazan and so the mean absorbance determined for each well of the same concentration can be used as a quantitative measure of viable cells compared to the controls. […]

[9] = tested on: glioma MGMT− and MGMT+ cell lines; test: MTT assay, glioma lines as a whole; settings: glioma MGMT− and MGMT+ cell lines
Excerpt: as §3, §4, §5
(§8) The two peripheral lanes were used as blank wells (cell free) and filled with 200 μL of medium in order to minimise medium evaporation from the plate. A separate time zero (T0) plate was set up alongside other plates. Serial dilutions in tissue culture medium of a 100 mM stock of test compound in DMSO were prepared immediately before each assay to ten times the final concentrations required, and then 20 μL was added to each well (200 μL total media per well) to achieve final concentrations of 0.5 μM, 1 μM, 5 μM, 10 μM, 50 μM, 100 μM, 500 μM, and 1000 μM. A minimum of four wells received the same test compound concentration. To control wells, including those in the T0 plate, 20 μL of medium was added. Previous assays had been carried out to verify that cell viability was not affected by the amount of DMSO added into the test compound-treated wells. A separate plate treated in the same way, but free of test compound, was used as a measure of cell viability at the time of drug addition (day 0).
(§9) After incubation at 37° C., 5% CO2 for 7 days (or immediately for the day 0 plate), cell viability was quantified using the MTT assay. 50 μL of sterile filtered MIT (3-(4,5-dimethylthiazol-2-yl)-2,5-diphenyltetrazolium bromide) (2 mg/mL in phosphate buffered saline) were added to each well (final concentration 0.4 mg/mL) and the plates were re-incubated for 4 hours to allow metabolic conversion of MTT by dehydrogenases in viable cells to insoluble formazan crystals. The medium and any unconverted MTT was aspirated, 150 μL of DMSO was added to each well, and the plates were shaken on a plate shaker (Stuart Scientific 503) to ensure complete formazan solubilisation.
(§10) The intensity of absorbance is directly proportional to cell viability. A linear relationship exists between cell number and the amount of formazan and so the mean absorbance determined for each well of the same concentration can be used as a quantitative measure of viable cells compared to the controls. A graph of absorbance against drug concentration was plotted and the test compound concentration (GI50) causing 50% inhibition of control cell growth (absorbance increase from day 0) was calculated by interpolation.

[10] = tested on: range of other cell lines (e.g., colon, melanoma); test: MTT assay, other cell lines; settings: other lines (e.g., colon, melanoma)
Excerpt: as §3, §4, §5, §8, §9, §10

[11] = 168 h, 7-day MTT, single determinations
[12] = 7-day MTT, single determinations

SMILES	GI50 (Glioma SNB19V (MGMT−); [11]) [µM]	GI50 (Glioma SNB19V (MGMT−); [12]) [µM]	GI50 (Glioma U373M (MGMT+); [11]) [µM]	GI50 (Glioma U373M (MGMT+); [12]) [µM]	GI50 (Glioma U373V (MGMT low); [11]) [µM]	GI50 (Glioma U373V (MGMT low); [12]) [µM]	activity compared with TMZ, in words [8]	activity in words [9]	GI50 (Glioma SNB19M (MGMT+))	also measured
COc1cccc(Cn2nnc3c(C(N)=O)ncn3c2=O)c1 [AA-003, 3-(3-Methoxybenzyl)-4-oxo-3,4-dihydroimidazo[5,1-d][1,2,3, 5]tetrazine-8-carboxamide]										GI50 [1]: 316 µM; GI50 [2]: 280 µM; GI50 ([2]; Homo sapiens, HCT-116, 168 h): 309 µM; GI50 [3]: 345 µM; GI50 [4]: 422 µM
CC[C@@H](c1ccccc1)n1nnc2c(C(N)=O)ncn2c1=O [BB-004, (S)-3-(-1-Phenylpropyl)-8-carbamoylimidazotetrazin-4-one]	52.4	65.8	63.1	99.4	84.3	72.8				GI50 (Glioma SNB19M (MGMT+); [11]): 48.4 µM; GI50 (Glioma SNB19M (MGMT+); [12]): 60 µM; GI50 [5]: 29.1 µM; GI50 [6]: 35.8 µM; GI50 [7]: 189 µM
CSCn1nnc2c(C(N)=O)ncn2c1=O [KK-001, 3-(Methylthio)methyl-8-carbamoylimidazotetrazin-4-one]	118	96.5	59	54	45	73.4	more active than TMZ			
COC(=O)Cn1nnc2c(C(N)=O)ncn2c1=O [LL-003, Methyl 2-(8-carbamoyl-4-oxoimidazo[5,1-d][1,2,3,5]tetrazin-3(4H)-yl)acetate]	21.3	29.7	25.4	33.7	9.6	11.6		surprising efficacy		GI50 (Glioma SNB19M (MGMT+); [11]): 34.8 µM; GI50 (Glioma SNB19M (MGMT+); [12]): 33.5 µM
CS(=O)(=O)CCn1nnc2c(C(N)=O)ncn2c1=O [UU-001, 3-(2-Methanesulfonyl-ethyl)-4-oxo-3,4-dihydro-imidazo[5,1-d][1,2,3,5]tetrazine-8-carboxylic acid amide]								surprising efficacy		GI50 (Glioma SNB19V (MGMT−)): 92.4 µM and 154 µM; activity in words [10]: surprising efficacy
CS(=O)(=O)Cn1nnc2c(C(N)=O)ncn2c1=O [UU-002, 3-Methanesulfonylmethyl-4-oxo-3,4-dihydro-imidazo[5,1-d][1,2,3,5]tetrazine-8-carboxylic acid amide]								surprising efficacy	14.5 µM and 13.7 µM and 26.6 µM	activity in words [10]: surprising efficacy
NC(=O)c1ncn2c(=O)n(CNC(=O)OCC3c4ccccc4-c4ccccc43)nnc12 [WW-001, (8-Carbamoyl-4-oxo-imidazo[5,1-d][1,2,3,5]tetrazin-3-ylmethyl)-carbamic acid 9H-fluoren-9-ylmethyl ester]							more active than TMZ		71.2 µM and 56 µM	GI50 (Glioma SNB19V (MGMT−)): 64.8 µM and 67.8 µM; GI50 (Glioma U373M (MGMT+)): 50 µM and 62.5 µM; GI50 (Glioma U373V (MGMT low)): 35.8 µM and 60.1 µM
CCC(Cn1nnc2c(C(N)=O)ncn2c1=O)=NOC [XX-001, 3-(2-Methoxyimino-butyl)-4-oxo-3,4-dihydro-imidazo[5,1-d][1,2,3,5]tetrazine-8-carboxylic acid amide]							more active than TMZ		47.2 µM and 47.9 µM	GI50 (Glioma U373V (MGMT low)): 18.5 µM and 10.6 µM; activity compared with TMZ, in words (Glioma U373V (MGMT low); MGMT− glioma cell line U373V): enhanced activity

Source: patent publication US8450479B2, “3-substituted-4-oxo-3,4-dihydro-imidazo[5,1-d][1,2,3,5-tetrazine-8-carboxylic acid amides and their use” (Pharminox Limited, priority 2007, dated 2013)
